Measurements from US10351718B2, “Optical filter and imaging device” (AGC Inc., priority 2015, dated 2019).

Assay: Solubility of dye to resin solution
Assay type: physicochemical
Details: 12.5 mass % polyester resin OKP850 in cyclohexanone:MIBK 1:1, 50° C.
Experimental: Regarding several kinds of the dyes obtained above, solubility to a resin solution was evaluated. In a solubility test, as the resin solution, there was used a solution having a resin concentration of 12.5 mass % that was prepared by dissolving a polyester resin (product name: OKP850 made by Osaka Gas Chemicals Co., Ltd.) in a mixed solvent (cyclohexanone:methyl isobutyl ketone (MIBK)=1:1). Results are illustrated in Table 5 together with the kinds of the used dyes. Incidentally, the temperature of the resin solution in the solubility test was 50° C., the dye was put into the resin solution, the resultant resin solution was stirred for two hours, and whether or not the dye was dissolved was observed visually. Evaluation criteria of the solubility are as follows.
A: Solubility greater than 10 mass %
B: Solubility greater than 5 mass % and 10 mass % or less
C: Solubility 5 mass % or less

Solubility Evaluation | SMILES
C (5 mass % or less) | CCCCCCCCS(=O)(=O)Nc1cc2c(cc1C1=C([O-])C(=c3cc4c(cc3NS(=O)(=O)CCCCCCCC)=[N+](C)C(C)C4(C)C)C1=O)C(C)(C)C(C)N2C (stereo not drawn) [Dye A1-1]
A (greater than 10 mass %) | CCCCCCCCS(=O)(=O)Nc1cc2c(cc1C1=C([O-])C(=c3cc4c(cc3NS(=O)(=O)CCCCCCCC)=[N+](C(C)C)C(C)C4(C)C)C1=O)C(C)(C)C(C)N2C(C)C (stereo not drawn) [Dye A1-15]
A (greater than 10 mass %) | CCCCCCCCS(=O)(=O)Nc1cc2c(cc1C1=C([O-])C(=c3cc4c(cc3NS(=O)(=O)CCCCCCCC)=[N+](C(C)(C)CC)C(C)C4(C)C)C1=O)C(C)(C)C(C)N2C(C)(C)CC (stereo not drawn) [Dye A1-21]

Continued, compound first:

SMILES | Solubility Evaluation
CC1N(C)c2cc(NS(=O)(=O)C(F)(F)F)c(C3=C([O-])C(=c4cc5c(cc4NS(=O)(=O)C(F)(F)F)=[N+](C)C(C)C5(C)C)C3=O)cc2C1(C)C (stereo not drawn) [Dye A1-2] | C (5 mass % or less)
CC1N(C)c2cc(NS(=O)(=O)c3ccc(C(F)(F)F)cc3)c(C3=C([O-])C(=c4cc5c(cc4NS(=O)(=O)c4ccc(C(F)(F)F)cc4)=[N+](C)C(C)C5(C)C)C3=O)cc2C1(C)C (stereo not drawn) [Dye A1-8] | C (5 mass % or less)
CC(C)N1c2cc(NS(=O)(=O)C(F)(F)F)c(C3=C([O-])C(=c4cc5c(cc4NS(=O)(=O)C(F)(F)F)=[N+](C(C)C)C(C)C5(C)C)C3=O)cc2C(C)(C)C1C (stereo not drawn) [Dye A1-9] | A (greater than 10 mass %)
CC(C)N1c2cc(NS(=O)(=O)c3ccc(C(F)(F)F)cc3)c(C3=C([O-])C(=c4cc5c(cc4NS(=O)(=O)c4ccc(C(F)(F)F)cc4)=[N+](C(C)C)C(C)C5(C)C)C3=O)cc2C(C)(C)C1C (stereo not drawn) [Dye A1-16] | A (greater than 10 mass %)

Same assay, conditions: 12.5 mass % polyester resin OKP850 in cyclohexanone:MIBK 1:1, 50° C., stirred two hours, visual

Solubility [mass %] | SMILES
1 | CCCCCCCCS(=O)(=O)Nc1cc2c(cc1C1=C([O-])C(=c3cc4c(cc3NS(=O)(=O)CCCCCCCC)=[N+](C)C(C)C4(C)C)C1=O)C(C)(C)C(C)N2C (stereo not drawn) [Dye A1-1]
15 | CCCCCCCCS(=O)(=O)Nc1cc2c(cc1C1=C([O-])C(=c3cc4c(cc3NS(=O)(=O)CCCCCCCC)=[N+](C(C)C)C(C)C4(C)C)C1=O)C(C)(C)C(C)N2C(C)C (stereo not drawn) [Dye A1-15]
12 | CCCCCCCCS(=O)(=O)Nc1cc2c(cc1C1=C([O-])C(=c3cc4c(cc3NS(=O)(=O)CCCCCCCC)=[N+](C(C)(C)CC)C(C)C4(C)C)C1=O)C(C)(C)C(C)N2C(C)(C)CC (stereo not drawn) [Dye A1-21]

The remaining lines, values behind:

SMILES | Solubility [mass %]
CC1N(C)c2cc(NS(=O)(=O)C(F)(F)F)c(C3=C([O-])C(=c4cc5c(cc4NS(=O)(=O)C(F)(F)F)=[N+](C)C(C)C5(C)C)C3=O)cc2C1(C)C (stereo not drawn) [Dye A1-2] | 5
CC1N(C)c2cc(NS(=O)(=O)c3ccc(C(F)(F)F)cc3)c(C3=C([O-])C(=c4cc5c(cc4NS(=O)(=O)c4ccc(C(F)(F)F)cc4)=[N+](C)C(C)C5(C)C)C3=O)cc2C1(C)C (stereo not drawn) [Dye A1-8] | 3
CC(C)N1c2cc(NS(=O)(=O)C(F)(F)F)c(C3=C([O-])C(=c4cc5c(cc4NS(=O)(=O)C(F)(F)F)=[N+](C(C)C)C(C)C5(C)C)C3=O)cc2C(C)(C)C1C (stereo not drawn) [Dye A1-9] | 12
CC(C)N1c2cc(NS(=O)(=O)c3ccc(C(F)(F)F)cc3)c(C3=C([O-])C(=c4cc5c(cc4NS(=O)(=O)c4ccc(C(F)(F)F)cc4)=[N+](C(C)C)C(C)C5(C)C)C3=O)cc2C(C)(C)C1C (stereo not drawn) [Dye A1-16] | 12

Same assay, conditions: polyester resin OKP850 solution, 50° C.; compared to dyes without branch structure in R^1

Solubility to the resin solution (in words) | SMILES
high solubility | CCCCCCCCS(=O)(=O)Nc1cc2c(cc1C1=C([O-])C(=c3cc4c(cc3NS(=O)(=O)CCCCCCCC)=[N+](C(C)C)C(C)C4(C)C)C1=O)C(C)(C)C(C)N2C(C)C (stereo not drawn) [Dye A1-15]
high solubility | CCCCCCCCS(=O)(=O)Nc1cc2c(cc1C1=C([O-])C(=c3cc4c(cc3NS(=O)(=O)CCCCCCCC)=[N+](C(C)(C)CC)C(C)C4(C)C)C1=O)C(C)(C)C(C)N2C(C)(C)CC (stereo not drawn) [Dye A1-21]

The remaining lines, values behind:

SMILES | Solubility to the resin solution (in words)
CC(C)N1c2cc(NS(=O)(=O)C(F)(F)F)c(C3=C([O-])C(=c4cc5c(cc4NS(=O)(=O)C(F)(F)F)=[N+](C(C)C)C(C)C5(C)C)C3=O)cc2C(C)(C)C1C (stereo not drawn) [Dye A1-9] | high solubility
CC(C)N1c2cc(NS(=O)(=O)c3ccc(C(F)(F)F)cc3)c(C3=C([O-])C(=c4cc5c(cc4NS(=O)(=O)c4ccc(C(F)(F)F)cc4)=[N+](C(C)C)C(C)C5(C)C)C3=O)cc2C(C)(C)C1C (stereo not drawn) [Dye A1-16] | high solubility

Assay: Absorption characteristic of the dye in dichloromethane
Assay type: physicochemical
Details: dichloromethane; transmittance at λmax set to 10%
Experimental: The dyes obtained above were each dissolved in dichloromethane, and using an ultraviolet-visible spectrophotometer (made by Hitachi High Technologies Co., Ltd., U-4100 type), each spectral transmittance curve was measured, from which a maximum absorption wavelength λmax, a wavelength λ80 with which the transmittance becomes 80% on a shorter wavelength side than the maximum absorption wavelength with the transmittance at the maximum absorption wavelength set to 10%, the difference between the maximum absorption wavelength λmax and the wavelength λ80 (λmax−λ80), a maximum absorption coefficient εA in a wavelength of 430 to 550 nm, a maximum absorption coefficient εB in a wavelength of 670 to 730 nm, and a ratio of these (εB/εA) were calculated. Note that measurement of the dye (A9) was not performed because its solubility was low. Further, for each of the following spectral transmittance curves, an ultraviolet-visible spectrophotometer (made by Hitachi High Technologies Co., Ltd., U-4100 type) was used.

λ80 (wavelength with 80% transmittance on shorter wavelength side of λmax) [nm] | λmax − λ80 [nm] | SMILES
630 | 61 | CCCCCCCCS(=O)(=O)Nc1cc2c(cc1C1=C([O-])C(=c3cc4c(cc3NS(=O)(=O)CCCCCCCC)=[N+](C)C(C)C4(C)C)C1=O)C(C)(C)C(C)N2C (stereo not drawn) [Dye A1-1]
646 | 52 | CCCCCCCCS(=O)(=O)Nc1cc2c(cc1C1=C([O-])C(=c3cc4c(cc3NS(=O)(=O)CCCCCCCC)=[N+](C(C)C)C(C)C4(C)C)C1=O)C(C)(C)C(C)N2C(C)C (stereo not drawn) [Dye A1-15]
656 | 49 | CCCCCCCCS(=O)(=O)Nc1cc2c(cc1C1=C([O-])C(=c3cc4c(cc3NS(=O)(=O)CCCCCCCC)=[N+](C(C)(C)CC)C(C)C4(C)C)C1=O)C(C)(C)C(C)N2C(C)(C)CC (stereo not drawn) [Dye A1-21]

The next lines start with the compound.

SMILES | λ80 (wavelength with 80% transmittance on shorter wavelength side of λmax) [nm] | λmax − λ80 [nm]
CC1N(C)c2cc(NS(=O)(=O)C(F)(F)F)c(C3=C([O-])C(=c4cc5c(cc4NS(=O)(=O)C(F)(F)F)=[N+](C)C(C)C5(C)C)C3=O)cc2C1(C)C (stereo not drawn) [Dye A1-2] | 634 | 63
CC1N(C)c2cc(NS(=O)(=O)c3ccc(C(F)(F)F)cc3)c(C3=C([O-])C(=c4cc5c(cc4NS(=O)(=O)c4ccc(C(F)(F)F)cc4)=[N+](C)C(C)C5(C)C)C3=O)cc2C1(C)C (stereo not drawn) [Dye A1-8] | 634 | 61
CC(C)N1c2cc(NS(=O)(=O)C(F)(F)F)c(C3=C([O-])C(=c4cc5c(cc4NS(=O)(=O)C(F)(F)F)=[N+](C(C)C)C(C)C5(C)C)C3=O)cc2C(C)(C)C1C (stereo not drawn) [Dye A1-9] | 651 | 52
CC(C)N1c2cc(NS(=O)(=O)c3ccc(C(F)(F)F)cc3)c(C3=C([O-])C(=c4cc5c(cc4NS(=O)(=O)c4ccc(C(F)(F)F)cc4)=[N+](C(C)C)C(C)C5(C)C)C3=O)cc2C(C)(C)C1C (stereo not drawn) [Dye A1-16] | 650 | 52

Same assay, conditions: dissolved in dichloromethane

εA (maximum absorption coefficient in a wavelength of 430 to 550 nm) | εB (maximum absorption coefficient in a wavelength of 670 to 730 nm) | εB/εA | λmax (maximum absorption wavelength) [nm] | SMILES
0.0130 | 1 | 76.9 | 691 | CCCCCCCCS(=O)(=O)Nc1cc2c(cc1C1=C([O-])C(=c3cc4c(cc3NS(=O)(=O)CCCCCCCC)=[N+](C)C(C)C4(C)C)C1=O)C(C)(C)C(C)N2C (stereo not drawn) [Dye A1-1]
0.0112 | 1 | 89.3 | 698 | CCCCCCCCS(=O)(=O)Nc1cc2c(cc1C1=C([O-])C(=c3cc4c(cc3NS(=O)(=O)CCCCCCCC)=[N+](C(C)C)C(C)C4(C)C)C1=O)C(C)(C)C(C)N2C(C)C (stereo not drawn) [Dye A1-15]
0.0143 | 1 | 69.9 | 705 | CCCCCCCCS(=O)(=O)Nc1cc2c(cc1C1=C([O-])C(=c3cc4c(cc3NS(=O)(=O)CCCCCCCC)=[N+](C(C)(C)CC)C(C)C4(C)C)C1=O)C(C)(C)C(C)N2C(C)(C)CC (stereo not drawn) [Dye A1-21]

More lines, now with the values behind:

SMILES | εA (maximum absorption coefficient in a wavelength of 430 to 550 nm) | εB (maximum absorption coefficient in a wavelength of 670 to 730 nm) | εB/εA | λmax (maximum absorption wavelength) [nm]
CC1N(C)c2cc(NS(=O)(=O)C(F)(F)F)c(C3=C([O-])C(=c4cc5c(cc4NS(=O)(=O)C(F)(F)F)=[N+](C)C(C)C5(C)C)C3=O)cc2C1(C)C (stereo not drawn) [Dye A1-2] | 0.0066 | 1 | 152 | 697
CC1N(C)c2cc(NS(=O)(=O)c3ccc(C(F)(F)F)cc3)c(C3=C([O-])C(=c4cc5c(cc4NS(=O)(=O)c4ccc(C(F)(F)F)cc4)=[N+](C)C(C)C5(C)C)C3=O)cc2C1(C)C (stereo not drawn) [Dye A1-8] | 0.0117 | 1 | 85.5 | 695
CC(C)N1c2cc(NS(=O)(=O)C(F)(F)F)c(C3=C([O-])C(=c4cc5c(cc4NS(=O)(=O)C(F)(F)F)=[N+](C(C)C)C(C)C5(C)C)C3=O)cc2C(C)(C)C1C (stereo not drawn) [Dye A1-9] | 0.0082 | 1 | 122 | 703
CC(C)N1c2cc(NS(=O)(=O)c3ccc(C(F)(F)F)cc3)c(C3=C([O-])C(=c4cc5c(cc4NS(=O)(=O)c4ccc(C(F)(F)F)cc4)=[N+](C(C)C)C(C)C5(C)C)C3=O)cc2C(C)(C)C1C (stereo not drawn) [Dye A1-16] | 0.0111 | 1 | 90.1 | 702
